Measurements published in patent publication US8067454B2, “Thio-substituted Anthra [1, 2-d] imidazole- 6, 11-dione derivatives, preparation method and application thereof” (National Defense Medical Center, priority 2010, dated 2011).

Experiments:
EKVX = assay: NCI 60-cell drug screen, Non-Small Cell Lung Cancer EKVX; type: cell-based, human; settings: 1.00E−5 Molar
IGROV1 = assay: NCI 60-cell drug screen, Ovarian Cancer IGROV1; type: cell-based, human; settings: 1.00E−5 Molar
PC-3 = assay: NCI 60-cell drug screen, Prostate Cancer PC-3; type: cell-based, human; settings: 1.00E−5 Molar
COLO 205 = assay: NCI 60-cell drug screen, Colon Cancer COLO 205; type: cell-based, human; settings: 1.00E−5 Molar
NCI-H460 = assay: NCI 60-cell drug screen, Non-Small Cell Lung Cancer NCI-H460; type: cell-based, human; settings: 1.00E−5 Molar
MDA-MB-468 = assay: NCI 60-cell drug screen, Breast Cancer MDA-MB-468; type: cell-based, human; settings: 1.00E−5 Molar
K-562 = assay: NCI 60-cell drug screen, Leukemia K-562; type: cell-based, human; settings: 1.00E−5 Molar
[1] = test system: 60 kinds of different human cancer cells; assay: NCI 60-cell drug screen, whole panel (One Dose Mean Graph); type: cell-based; settings: mean over the cell lines of the panel; 1.00E−5 Molar
MDA-MB-435 = assay: NCI 60-cell drug screen, Melanoma MDA-MB-435; type: cell-based, human; settings: 1.00E−5 Molar
NCI-H23 = assay: NCI 60-cell drug screen, Non-Small Cell Lung Cancer NCI-H23; type: cell-based, human; settings: 1.00E−5 Molar
CAKI-1 = assay: NCI 60-cell drug screen, Renal Cancer CAKI-1; type: cell-based, human; settings: 1.00E−5 Molar
UO-31 = assay: NCI 60-cell drug screen, Renal Cancer UO-31; type: cell-based, human; settings: 1.00E−5 Molar
GBM8901 = assay: MTT assay, GBM8901 tumor cell; settings: concentration 10 μM, tumor cell
HS 578T = assay: NCI 60-cell drug screen, Breast Cancer HS 578T; type: cell-based, human; settings: 1.00E−5 Molar
SVG p12 = assay: MTT assay, SVG p12 normal cell; settings: concentration 10 μM, normal cell
MOLT-4 = assay: NCI 60-cell drug screen, Leukemia MOLT-4; type: cell-based, human; settings: 1.00E−5 Molar
SW-620 = assay: NCI 60-cell drug screen, Colon Cancer SW-620; type: cell-based, human; settings: 1.00E−5 Molar
HCT-116 = assay: NCI 60-cell drug screen, Colon Cancer HCT-116; type: cell-based, human; settings: 1.00E−5 Molar
MCF7 = assay: NCI 60-cell drug screen, Breast Cancer MCF7; type: cell-based, human; settings: 1.00E−5 Molar
HT29 = assay: NCI 60-cell drug screen, Colon Cancer HT29; type: cell-based, human; settings: 1.00E−5 Molar
UACC-257 = assay: NCI 60-cell drug screen, Melanoma UACC-257; type: cell-based, human; settings: 1.00E−5 Molar
NCI-H322M = assay: NCI 60-cell drug screen, Non-Small Cell Lung Cancer NCI-H322M; type: cell-based, human; settings: 1.00E−5 Molar
DU-145 = assay: NCI 60-cell drug screen, Prostate Cancer DU-145; type: cell-based, human; settings: 1.00E−5 Molar
U251 = assay: NCI 60-cell drug screen, CNS Cancer U251; type: cell-based, human; settings: 1.00E−5 Molar
OVCAR-3 = assay: NCI 60-cell drug screen, Ovarian Cancer OVCAR-3; type: cell-based, human; settings: 1.00E−5 Molar
[2] = test system: SVG p12, GBM8401 and GBM8901; assay: MTT assay, normal cell versus tumor cells (categories 39-3 to 39-7); settings: tumor cell survival rate less than 80%; FIG. 5A

For `O=C1c2ccccc2C(=O)c2c1ccc1nc(S)[nH]c21` [f1-0, 2-Mercapto-1(3)H-anthra[1,2-d]imidazole-6,11-dione], the “Growth Percent, EKVX” value (EKVX) was 50.53%, the “Growth Percent, IGROV1” value (IGROV1) was 138.25% and the “Growth Percent, PC-3” value (PC-3) was 78.80%. For the same compound, the “Growth Percent, COLO 205” value (COLO 205) was 103.96%, the “Growth Percent, NCI-H460” value (NCI-H460) was 98.61% and the “Growth Percent, MDA-MB-468” value (MDA-MB-468) was 87.69%. For the same compound, the “Growth Percent, K-562” value (K-562) was 108.55%, the “Growth Percent, Mean” value [1] was 99.72% and the “Growth Percent, MDA-MB-435” value (MDA-MB-435) was 114.02%. For the same compound, the “Growth Percent, NCI-H23” value (NCI-H23) was 113.34%, the “Growth Percent, CAKI-1” value (CAKI-1) was 91.23% and the “Growth Percent, UO-31” value (UO-31) was 97.83%. The “Cell survival rate (%) GBM8901” value (GBM8901) was 78 ± 13%, the “Growth Percent, HS 578T” value (HS 578T) was 103.53% and the “Cell survival rate (%) SVG p12” value (SVG p12) was 82 ± 5%. The “Growth Percent, MOLT-4” value (MOLT-4) was 108.60%, the “Growth Percent, SW-620” value (SW-620) was 97.56% and the “Growth Percent, HCT-116” value (HCT-116) was 96.31%. The “Growth Percent, MCF7” value (MCF7) was 75.91%, the “Growth Percent, HT29” value (HT29) was 103.79% and the “Growth Percent, UACC-257” value (UACC-257) was 105.26%. For the same compound, the “Growth Percent, NCI-H322M” value (NCI-H322M) was 96.31%, the “Growth Percent, DU-145” value (DU-145) was 99.28% and the “Growth Percent, U251” value (U251) was 88.79%. The “Growth Percent, OVCAR-3” value (OVCAR-3) was 86.94%.

`CCSc1nc2ccc3c(c2[nH]1)C(=O)c1ccccc1C3=O` [f1-1, 2-(Ethylthio)-1H-anthra[1,2-d]imidazole-6,11-dione] was tested, and the “Growth Percent, EKVX” value (EKVX) was 43.67%, the “category 39-3: survival rate higher than 80% for normal cell SVG p12 and inhibits growth of both tumor cells GBM8401 and GBM8901” value [2] was “in this category” and the “Growth Percent, IGROV1” value (IGROV1) was 73.41%. The “Growth Percent, PC-3” value (PC-3) was 53.79%, the “Growth Percent, COLO 205” value (COLO 205) was 71.84% and the “Growth Percent, NCI-H460” value (NCI-H460) was 38.83%. For the same compound, the “Growth Percent, MDA-MB-468” value (MDA-MB-468) was 35.36%, the “Growth Percent, K-562” value (K-562) was 86.29% and the “Growth Percent, Mean” value [1] was 67.96%. The “Growth Percent, MDA-MB-435” value (MDA-MB-435) was 68.42%, the “Growth Percent, NCI-H23” value (NCI-H23) was 87.41% and the “Growth Percent, CAKI-1” value (CAKI-1) was −8.01%. For the same compound, the “Growth Percent, UO-31” value (UO-31) was 49.19%, the “Cell survival rate (%) GBM8901” value (GBM8901) was 58 ± 7% and the “Growth Percent, HS 578T” value (HS 578T) was 85.44%. For the same compound, the “Cell survival rate (%) SVG p12” value (SVG p12) was 98 ± 8%, the “Growth Percent, MOLT-4” value (MOLT-4) was 100.70% and the “Growth Percent, SW-620” value (SW-620) was 84.53%. For the same compound, the “Growth Percent, HCT-116” value (HCT-116) was 68.78%, the “Growth Percent, MCF7” value (MCF7) was 43.81% and the “Growth Percent, HT29” value (HT29) was 75.18%. The “Growth Percent, UACC-257” value (UACC-257) was 111.80%, the “Growth Percent, NCI-H322M” value (NCI-H322M) was 33.44% and the “Growth Percent, DU-145” value (DU-145) was 64.51%. The “Growth Percent, U251” value (U251) was 65.03% and the “Growth Percent, OVCAR-3” value (OVCAR-3) was 69.27%.

With `CCCSc1nc2ccc3c(c2[nH]1)C(=O)c1ccccc1C3=O` [f1-2, 2-(propylthio)-1H-anthra[1,2-d]imidazole-6,11-dione] the “Growth Percent, EKVX” value (EKVX) was 76.83%, the “category 39-3: survival rate higher than 80% for normal cell SVG p12 and inhibits growth of both tumor cells GBM8401 and GBM8901” value [2] was “in this category” and the “Growth Percent, IGROV1” value (IGROV1) was 53.72%. The “Growth Percent, PC-3” value (PC-3) was 66.76%, the “Growth Percent, COLO 205” value (COLO 205) was 102.68% and the “Growth Percent, NCI-H460” value (NCI-H460) was 68.12%. For the same compound, the “Growth Percent, K-562” value (K-562) was 62.88%, the “Growth Percent, Mean” value [1] was 60.02% and the “Growth Percent, MDA-MB-435” value (MDA-MB-435) was 77.38%. For the same compound, the “Growth Percent, NCI-H23” value (NCI-H23) was 69.80%, the “Growth Percent, CAKI-1” value (CAKI-1) was 45.47% and the “Growth Percent, UO-31” value (UO-31) was 24.49%. The “Cell survival rate (%) GBM8901” value (GBM8901) was 62 ± 7%, the “Growth Percent, HS 578T” value (HS 578T) was 33.33% and the “Cell survival rate (%) SVG p12” value (SVG p12) was 99%. For the same compound, the “Growth Percent, MOLT-4” value (MOLT-4) was 68.13%, the “Growth Percent, SW-620” value (SW-620) was 104.18% and the “Growth Percent, HCT-116” value (HCT-116) was 47.69%. For the same compound, the “Growth Percent, MCF7” value (MCF7) was 58.97%, the “Growth Percent, HT29” value (HT29) was 75.10% and the “Growth Percent, UACC-257” value (UACC-257) was 86.31%. For the same compound, the “Growth Percent, NCI-H322M” value (NCI-H322M) was 76.02%, the “Growth Percent, DU-145” value (DU-145) was 69.29% and the “Growth Percent, U251” value (U251) was 62.95%. The “Growth Percent, OVCAR-3” value (OVCAR-3) was 62.71%.
